In brackets after ≈: the same amount, converted by molar mass.
Legend:
[1] = test system: H9 (acute lymphoblastic leukemia, ALL); assay: Leukemia cell growth inhibition, MTT, 72 h (Example 5); format: cell-based, human; conditions: Homo sapiens; 72 h, MTT
From the text: (§1) Leukemia cell lines: leukemia cell lines: K562/adr (drug-resistant, chronic myeloid leukemia, CML), NB4 (acute promyelocytic leukemia, AML), Kasumi-1 (acute myeloid leukemia M2 type, AML-M2), Jurkat (acute lymphoblastic leukemia, ALL), all of which are donated by Cancer Research Institute of Zhejiang University, China; and H9 (acute lymphoblastic leukemia, ALL), which is purchased from China Center for Type Culture Collection.
(§2) Reagents: The standard sample of tetrandrine (TTD) is purchased from Ci Yuan Biotechnology Co., Ltd., Shaanxi, China; and the 5-substituted tetrandrine derivatives of the present invention.
(§3) Obtaining 6000 well-growing leukemia cells and inoculating them into wells of a 96-well cell culture plate. The culture medium is a 1640 cell culture medium containing 10% fetal bovine serum. After adding the tetrandrine derivatives of different concentrations and mixing uniformly, placing the plate in a carbon dioxide cell incubator (5% CO2) at 37° C. and incubating for 72 hours. Then the viable cell concentration is determined by the MTT method.

[2] = test system: Jurkat (acute lymphoblastic leukemia, ALL); assay: as above; format: cell-based, human; conditions: Homo sapiens, Jurkat; 72 h, MTT
From the text: as §1, §2, §3

[3] = test system: K562/adr (drug-resistant, chronic myeloid leukemia, CML); assay: as above; format: cell-based, human; conditions: Homo sapiens, K562/Adr; 72 h, MTT
From the text: as §1, §2, §3

[4] = test system: Kasumi-1 (acute myeloid leukemia M2 type, AML-M2); assay: as above; format: cell-based, human; conditions: Homo sapiens, Kasumi 1
From the text: as §1, §2, §3

[5] = test system: NB4 (acute promyelocytic leukemia, AML); assay: as above; format: cell-based, human; conditions: Homo sapiens; 72 h, MTT
From the text: as §1, §2, §3

[6] = test system: RPMI8226 (multiple myeloma); assay: Multiple myeloma cell growth inhibition, MTT, 72 h (Example 6); format: cell-based, human; conditions: Homo sapiens, RPMI-8226; 72 h, MTT, RPMI8226
Procedure: Multiple myeloma and lymphoma cell lines: RPMI8226 (multiple myeloma), purchased from Fuxiang Bio-tech Co. Ltd., Shanghai, China.
(§4) Reagents: the same as in Example 5.
as §3, with “incubated” for “incubating”

[7] = test system: CaES-17 (esophageal cancer cell); assay: Solid tumor cell growth inhibition, MTT, 72 h (Example 7); format: cell-based, human; conditions: Homo sapiens, CaEs17; 72 h, MTT, CAES-17
Procedure: (§5) Human solid tumor cell lines: Hep-2 (laryngeal carcinoma), A549 (human lung cancer), CaES-17 (esophageal cancer cell), PC-3 (prostate cancer), CNE (nasopharyngeal carcinoma cell) and SK-OV-3 (ovarian cancer cell), all of which are purchased from China Center For Type Culture Collection; RKO (human colon adenocarcinoma cell), MGC 803 (human gastric cancer cell), MG63 (osteosarcoma), and U87 MG (malignant glioma cell), all of which are purchased from Fuxiang Bio-tech Co. Ltd., Shanghai, China; PANC-1 (pancreatic cancer), Huh? (human liver cancer cell), Becap37 (human breast cancer cell), and Hela (human cervical cancer cell), all of which are donated by Cancer Research Institute of Zhejiang University, China.
as §4
(§6) Obtaining 4000 well-growing human solid tumor cells and inoculating them into wells of a 96-well cell culture plate. The culture medium is DMEM High Glucose cell culture medium containing 10% fetal bovine serum. The plate is placed in a carbon dioxide cell incubator (5% CO2) at 37° C. and incubated for 24 hours. After been added with tetrandrine derivatives of different concentration and mixing uniformly, the plate is placed in a carbon dioxide cell incubator (5% CO2) at 37° C. and incubated for 72 hours. Then the viable cell concentration is determined by the MTT method and the cell viability (%) after drug treatment is calculated. In this experiment, the cell viability of control group (not treated with any compound) is set as 100%.

MG63 (osteosarcoma) = assay: as above; format: cell-based, human; conditions: Homo sapiens; 72 h, MTT, MG-63
Procedure: as §5, §4, §6

[8] = test system: PANC-1 (pancreatic cancer); assay: as above; format: cell-based, human; conditions: Homo sapiens; 72 h, MTT, PANC-1
Procedure: as §5, §4, §6

PC-3 (prostate cancer) = assay: as above; format: cell-based, human; conditions: Homo sapiens; 72 h, MTT, PC-3
Procedure: as §5, §4, §6

A549 (human lung cancer) = assay: as above; format: cell-based; conditions: Homo sapiens; 72 h, MTT, A549
Procedure: as §5, §4, §6

[9] = test system: Becap37 (human breast cancer cell); assay: as above; format: cell-based; conditions: Homo sapiens; 72 h, MTT, Becap-37
Procedure: as §5, §4, §6

[10] = test system: Huh7 (human liver cancer cell); assay: as above; format: cell-based; conditions: Homo sapiens; 72 h, MTT, Huh-7
Procedure: as §5, §4, §6

[11] = test system: MGC 803 (human gastric cancer cell); assay: as above; format: cell-based; conditions: Homo sapiens
Procedure: as §5, §4, §6

[12] = test system: RKO (human colon adenocarcinoma cell); assay: as above; format: cell-based; conditions: Homo sapiens; 72 h, MTT, RKO
Procedure: as §5, §4, §6

IC50 [1]	IC90 [1]	IC50 [2]	IC90 [2]	IC50 [3]	IC90 [3]	IC50 [4]	IC90 [4]	IC50 [5]	IC90 [5]	IC50 [6]	IC90 [6]	IC50 [7]	IC90 [7]	IC50 (MG63 (osteosarcoma))	IC90 (MG63 (osteosarcoma))	IC50 [8]	IC90 [8]	IC50 (PC-3 (prostate cancer))	IC90 (PC-3 (prostate cancer))	Structure (SMILES)	other results
1.7 µg/mL (≈ 2.31 µM)	4.68 µg/mL (≈ 6.36 µM)	3.91 µg/mL (≈ 5.31 µM)	12.7 µg/mL (≈ 17.3 µM)	3.54 µg/mL (≈ 4.81 µM)	12.4 µg/mL (≈ 16.8 µM)	1.76 µg/mL (≈ 2.39 µM)	8.69 µg/mL (≈ 11.8 µM)	1.43 µg/mL (≈ 1.94 µM)	6.61 µg/mL (≈ 8.98 µM)	0.28 µg/mL (≈ 0.38 µM)	0.76 µg/mL (≈ 1.03 µM)	3.43 µg/mL (≈ 4.66 µM)	27.4 µg/mL (≈ 37.3 µM)	1.38 µg/mL (≈ 1.88 µM)	4.84 µg/mL (≈ 6.58 µM)	6.54 µg/mL (≈ 8.89 µM)	14.7 µg/mL (≈ 19.9 µM)	5.39 µg/mL (≈ 7.32 µM)	8.99 µg/mL (≈ 12.2 µM)	COc1ccc2cc1Oc1ccc(cc1)C[C@H]1c3cc(c(OC)cc3CCN1C)Oc1c(OC)c(OC)c(CN3CCC(O)CC3)c3c1[C@H](C2)N(C)CC3 [BS-TE-308]	IC50 (A549 (human lung cancer)): 2.79 µg/mL (≈ 3.79 µM); IC90 (A549 (human lung cancer)): 11.2 µg/mL (≈ 15.2 µM); IC50 [9]: 4.76 µg/mL (≈ 6.47 µM); IC90 [9]: 11.5 µg/mL (≈ 15.6 µM); IC50 [10]: 3.1 µg/mL (≈ 4.21 µM); IC90 [10]: 4.95 µg/mL (≈ 6.73 µM); IC50 [11]: 4.44 µg/mL (≈ 6.03 µM); IC90 [11]: 23 µg/mL (≈ 31.3 µM); IC50 [12]: 1.77 µg/mL (≈ 2.41 µM); IC90 [12]: 4.03 µg/mL (≈ 5.48 µM)
2.29 µg/mL (≈ 3.3 µM)	3.99 µg/mL (≈ 5.75 µM)	3.15 µg/mL (≈ 4.54 µM)	9.19 µg/mL (≈ 13.2 µM)	1.97 µg/mL (≈ 2.84 µM)	12 µg/mL (≈ 17.3 µM)	1.33 µg/mL (≈ 1.92 µM)	5.63 µg/mL (≈ 8.11 µM)	0.83 µg/mL (≈ 1.2 µM)	4 µg/mL (≈ 5.76 µM)	0.18 µg/mL (≈ 0.259 µM)	1.74 µg/mL (≈ 2.51 µM)	4.05 µg/mL (≈ 5.84 µM)	25.6 µg/mL (≈ 36.9 µM)	1.89 µg/mL (≈ 2.72 µM)	4 µg/mL (≈ 5.76 µM)	6.31 µg/mL (≈ 9.09 µM)	13.2 µg/mL (≈ 19 µM)	6.04 µg/mL (≈ 8.7 µM)	8 µg/mL (≈ 11.5 µM)	COc1ccc2cc1Oc1ccc(cc1)C[C@H]1c3cc(c(OC)cc3CCN1C)Oc1c(OC)c(OC)c(CNC(C)C)c3c1[C@H](C2)N(C)CC3 [BS-TE-311]	IC50 (A549 (human lung cancer)): 1.89 µg/mL (≈ 2.72 µM); IC90 (A549 (human lung cancer)): 9.07 µg/mL (≈ 13.1 µM); IC50 [9]: 2.5 µg/mL (≈ 3.6 µM); IC90 [9]: 7.86 µg/mL (≈ 11.3 µM); IC50 [10]: 3.5 µg/mL (≈ 5.04 µM); IC90 [10]: 4.9 µg/mL (≈ 7.06 µM); IC50 [11]: 3.17 µg/mL (≈ 4.57 µM); IC90 [11]: 11.8 µg/mL (≈ 17 µM); IC50 [12]: 1.96 µg/mL (≈ 2.82 µM); IC90 [12]: 4.25 µg/mL (≈ 6.12 µM)
2.6 µg/mL (≈ 3.66 µM)	4.83 µg/mL (≈ 6.8 µM)	4.53 µg/mL (≈ 6.38 µM)	11 µg/mL (≈ 15.6 µM)	4.78 µg/mL (≈ 6.73 µM)	10.4 µg/mL (≈ 14.7 µM)	1.99 µg/mL (≈ 2.8 µM)	7.72 µg/mL (≈ 10.9 µM)	1.63 µg/mL (≈ 2.3 µM)	5.66 µg/mL (≈ 7.97 µM)	0.3 µg/mL (≈ 0.423 µM)	2.07 µg/mL (≈ 2.92 µM)	2.4 µg/mL (≈ 3.38 µM)	20.8 µg/mL (≈ 29.4 µM)	1.41 µg/mL (≈ 1.99 µM)	3.11 µg/mL (≈ 4.38 µM)	5.89 µg/mL (≈ 8.3 µM)	14.7 µg/mL (≈ 20.7 µM)	6.41 µg/mL (≈ 9.03 µM)	8 µg/mL (≈ 11.3 µM)	COc1ccc2cc1Oc1ccc(cc1)C[C@H]1c3cc(c(OC)cc3CCN1C)Oc1c(OC)c(OC)c(CNCC(C)O)c3c1[C@H](C2)N(C)CC3 (stereo partly drawn) [BS-TE-315]	IC50 (A549 (human lung cancer)): 1.96 µg/mL (≈ 2.76 µM); IC90 (A549 (human lung cancer)): 9.36 µg/mL (≈ 13.2 µM); IC50 [9]: 2.95 µg/mL (≈ 4.16 µM); IC90 [9]: 9.79 µg/mL (≈ 13.8 µM); IC50 [10]: 3.07 µg/mL (≈ 4.32 µM); IC90 [10]: 4.98 µg/mL (≈ 7.02 µM); IC50 [11]: 3.63 µg/mL (≈ 5.11 µM); IC90 [11]: 10.5 µg/mL (≈ 14.7 µM); IC50 [12]: 1.64 µg/mL (≈ 2.31 µM); IC90 [12]: 3.39 µg/mL (≈ 4.78 µM)
1.08 µg/mL (≈ 1.5 µM)	2.19 µg/mL (≈ 3.03 µM)	1.67 µg/mL (≈ 2.31 µM)	3.97 µg/mL (≈ 5.5 µM)	1.1 µg/mL (≈ 1.52 µM)	3.24 µg/mL (≈ 4.49 µM)	1.22 µg/mL (≈ 1.69 µM)	3.83 µg/mL (≈ 5.31 µM)	0.83 µg/mL (≈ 1.15 µM)	3.48 µg/mL (≈ 4.82 µM)	0.14 µg/mL (≈ 0.194 µM)	0.7 µg/mL (≈ 0.97 µM)	1.58 µg/mL (≈ 2.19 µM)	9.61 µg/mL (≈ 13.3 µM)	1 µg/mL (≈ 1.39 µM)	2.24 µg/mL (≈ 3.1 µM)	3.29 µg/mL (≈ 4.56 µM)	5.41 µg/mL (≈ 7.49 µM)	2.26 µg/mL (≈ 3.13 µM)	4.06 µg/mL (≈ 5.62 µM)	COc1ccc2cc1Oc1ccc(cc1)C[C@H]1c3cc(c(OC)cc3CCN1C)Oc1c(OC)c(OC)c(CN3CCC(O)C3)c3c1[C@H](C2)N(C)CC3 (stereo partly drawn) [BS-TE-322]	IC50 (A549 (human lung cancer)): 1.83 µg/mL (≈ 2.53 µM); IC90 (A549 (human lung cancer)): 6.34 µg/mL (≈ 8.78 µM); IC50 [9]: 2.31 µg/mL (≈ 3.2 µM); IC90 [9]: 4 µg/mL (≈ 5.54 µM); IC50 [10]: 1.42 µg/mL (≈ 1.97 µM); IC90 [10]: 1.94 µg/mL (≈ 2.69 µM); IC50 [11]: 2.29 µg/mL (≈ 3.17 µM); IC90 [11]: > 10 µg/mL; IC50 [12]: 0.9 µg/mL (≈ 1.25 µM); IC90 [12]: 2.4 µg/mL (≈ 3.32 µM)

Reference: US9133207B2, “Tetrandrine derivatives with substituted 5-carbon, preparation method and use thereof” (Hangzhou Bensheng Pharmaceutical Co., Ltd., priority 2011, dated 2015)
